Reference: US20060276416A1, “Methods and compositions for treating flushing and drug induced weight gain” (Sirtris Pharmaceuticals, Inc., priority 2005, published 2006)
Several values for one entry are separate records, joined by “and”; a condition that tells them apart may be missing. Equal values may be shown once.

Tests used:
[1] = system: H4IIEC3 cells; experiment: Oxidation of 14C-palmitate (14C-CO2 production); format: cell-based; settings: resveratrol 10 μM, AICAR 500 μM, metformin 1 mM; 4 hours; vehicle 1
Method: (§1) Oxidation of ^14C-palmitate to acid-soluble products (modified from […] cells ([…]. and B. E. Kemp, J Biol Chem (1992) 267(5): 2864-7) and HepG2 cells were maintained as described above. Cells (10^6 cells/T25) were seeded in a T25 flask one day prior to the experiment. […] At the end of incubation, the cap of each […]per and a 1'×1.5'' Whatman filter paper soaked with 250 μl 2N NaOH. Each flask was injected with 2 ml of 6N HCL, placed in a horizontal position for 10 minutes and left standing overnight. […] The experiment was repeated three times.

[2] = system: HepG2 cells; experiment: Oxidation of 14C-palmitate (14C-CO2 production); format: cell-based; settings: resveratrol 10 μM, AICAR 500 μM, metformin 1 mM; 4 hours; vehicle 1
Method: as §1

[3] = system: AMPK at Thr172 and ACC at serine 79; experiment: AMPK and ACC phosphorylation Western in CHO-HIR cells; format: cell-based; settings: AICAR 500 μM; resveratrol 12.5, 25 or 50 μM; 30 minutes
Method: Cells were harvested after 30 minutes and lysates were immediately boiled in SDS and subjected to Western analysis with site-specific antibodies. Phosphorylation of AMPK at Thr172 indicates activation of the kinase. Active AMPK phosphorylates and inactivates ACC at serine 79.

[4] = molecular target: T1, SIRT1 deacetylase (BIOMOL) (Homo sapiens, UniProt Q96EB6); experiment: High-throughput SIRT1 screening protocol (Fluor de Lys-SIRT1, 384 well); format: biochemical; settings: positive controls; roughly 50 μM, 200 μM NAD+, 5 μM Fluor de Lys-SIRT1
T1 construct: purchased BIOMOL
T1 sequence (Q96EB6 1-747): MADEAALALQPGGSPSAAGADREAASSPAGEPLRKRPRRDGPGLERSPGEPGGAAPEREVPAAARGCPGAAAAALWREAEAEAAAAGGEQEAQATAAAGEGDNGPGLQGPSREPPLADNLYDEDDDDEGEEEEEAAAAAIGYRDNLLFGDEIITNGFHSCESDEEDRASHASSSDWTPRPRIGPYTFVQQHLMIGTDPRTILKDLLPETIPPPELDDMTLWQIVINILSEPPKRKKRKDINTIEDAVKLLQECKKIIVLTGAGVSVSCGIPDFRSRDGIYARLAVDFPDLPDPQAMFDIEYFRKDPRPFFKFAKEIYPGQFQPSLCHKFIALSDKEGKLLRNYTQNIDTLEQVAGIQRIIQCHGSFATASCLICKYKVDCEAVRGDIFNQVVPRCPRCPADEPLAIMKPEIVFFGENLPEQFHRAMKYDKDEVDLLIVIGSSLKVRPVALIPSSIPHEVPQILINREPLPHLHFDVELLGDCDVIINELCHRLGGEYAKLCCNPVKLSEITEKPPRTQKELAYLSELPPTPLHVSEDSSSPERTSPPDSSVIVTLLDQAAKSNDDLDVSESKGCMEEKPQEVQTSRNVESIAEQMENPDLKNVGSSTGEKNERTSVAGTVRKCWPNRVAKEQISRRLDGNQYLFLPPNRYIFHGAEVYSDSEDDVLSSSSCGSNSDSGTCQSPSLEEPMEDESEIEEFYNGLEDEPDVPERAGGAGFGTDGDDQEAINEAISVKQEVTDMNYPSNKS
Method: The reaction mixture contains (final): 0.5 units/reaction SIRT1 deacetylase (BIOMOL); 200 μM NAD^+; 5 μM Fluor de Lys-SIRT1 substrate (BIOMOL); buffer (25 mM Tris/Cl, pH 8.0, 137 mM NaCl, 2.7 mM KCl, 1 mM MgCl2, and 1 mg/ml BSA). In addition, a reaction mixture containing no enzyme was made so that each well receiving compound has a corresponding “no enzyme control” well. Reactions were performed in black 384 well plates (NUNC) in a final volume of 25 μl/well.
The reactions were started by combining enzyme and substrate in a reaction mixture immediately prior to aliquoting in plates (or substrate only for “no enzyme control” plates). Mixture were aliquoted to plates using Biotek μFill (Biotek Instruments). Control mixtures were manually added to designated wells. A library compound was added at a desired concentration by pin transfer to both “with enzyme” and “no enzyme” plates. Compounds were added in at least triplicate (with enzyme reaction in duplicate and no enzyme controls) at a final concentration of roughly 50 μM. The plates were incubated at 37° C. for 30-60 minutes. Then 25 μl of 1× Developer II (BIOMOL) plus 2 mM nicotinamide were added to all wells to stop the reactions. The reactions were left for at least 30 minutes at 37° C. for the signal to develop. The plates were read in a microplate-reading fluorometer capable of excitation at a wavelength in the range of 350-380 nm and detection of emitted light in the range of 440-460 nm. A read time of 0.1 sec per well was used.

[5] = system: C. elegans; experiment: C. elegans fat accumulation, Nile Red staining; format: in vivo; settings: for Concentration as low as which fat accumulation is reduced: 10, 50 and 100 μM tested
Method: Fat accumulation was visualized with Nile Red staining, as described further below and in Ashrafi K, et al. Nature 421:268-27 (2003).
Synchronized starved L1 worms were grown in the presence of Nile Red. Strains were grown on NGM plates at 25° C. for approximately 48 hours until the young adult stage was reached. 20-30 young adult worms were then washed 2× with M9 buffer and transferred to new NGM/Nile red experimental plates that contained either OP50 or HTT5 E. coli carrying the L4440 RNAi control vector.
Young adults were transferred to plates containing the appropriate vector, Nile Red stain and drug then maintained at 25° C.
Nile Red: Nile Red Powder (Sigma #N-3013) was dissolved in acetone at 500 μg/ml, diluted in 1× Phosphate Buffered Saline (PBS) including appropriate drug and applied to surface of Nematode Growth Media (NGM) plates previously seeded with OP50 or RNAi bacteria, at a final concentration of 0.05 μg/ml. Fat content was monitored and recorded by fluorescence microscopy.

[6] = system: D. melanogaster; experiment: D. melanogaster survival (lifespan) assay; format: in vivo
Method: Survival assays were conducted independently with adult D. melanogaster in two laboratories. In the first laboratory, all trials used an yw marked wild-type strain. Larvae were reared on standard cornmeal-sugar-yeast (CSY) agar diet (cornmeal 5%, sucrose 10.5%, SAF yeast 2%, and agar 0.7%). Newly eclosed adults were placed in 1 L demography cages with approximately 75 males and 75 females. Three to four replicate 1 L demography cages were used for each treatment group in each trial. Every two days, dead flies were removed and scored, and food vials were replenished. Food vials contained cornmeal-sugar-yeast diet with SAF yeast as either 2% or 3% by weight. Test compounds in 100 μl of EtOH (or blank EtOH in controls) were mixed into melted aliquots of the adult food media to make a final concentration of 0, 10 or 100 μM. Fresh stock solutions and adult media were prepared weekly. In the second laboratory, lifespan trials were conducted with the wild type strain Canton-S, dSir2^4.5 and dSir2^5.26 (S. Smolik, University of Oregon), dSir2^17 (S. Astrom, Stockholm University, Sweden), and dSir2^KG00871 (Drosophila Stock Center, Bloomington, Ind.). Larvae for all tests were reared on standard cornmeal-sugar-yeast diet. Newly eclosed adults were incubated in plastic shell vials containing 5 ml of 15% sugar-yeast diet (15% SY) or 5% sugar-yeast (5% SY) diet (15% SY: 15% yeast, 15% sucrose, 2% agar; 5% SY: 5% yeast, 5% sucrose, 2% agar as per Ref.^20). In all trials, ˜20 males with ˜20 females were placed into each of 10 vials/treatment group. Every two days, flies were passed into new vials and dead flies were counted. […] Final compound concentrations were 0, 10, 100 or 200 μM. Fresh stock solution and adult media was prepared weekly.

[7] = molecular target: T2, recombinant human SIRT1 (Homo sapiens, UniProt Q96EB6); experiment: SIRT1 fluorescent deacetylation assay (p53-382 acetylated peptide); format: biochemical
T2 sequence (Q96EB6 1-747): T1 sequence (Q96EB6 1-747)
Method: To identify compounds that modulate SIRT1 activity, a number of small molecule libraries were screened using a fluorescent deacetylation assay in 96-well plates^26. The substrate used in the assay was a fluorogenic peptide based on the sequence encompassing the p53-K382 acetylation site, a known target of SIRT1 in vivo^20,21,27. […] The small molecule libraries included analogues of nicotinamide, ε-acetyl lysine, NAD^+, nucleotides, nucleotide analogues and purinergic ligands.
From 0.1 to 1 μg of SIRT1 and 1.5 μg of Sir2 were used per deacetylation assay (in 50 μl total reaction) as previously described^26. SIRT1 assays and certain of those for Sir2 employed the p53-382 acetylated substrate (‘Fluor de Lys-SIRT1’, BIOMOL) rather than FdL.
Themed compound libraries (BIOMOL) were used for primary and secondary screening. Most polyphenol compounds were dissolved at 10 mM in dimethylsulfoxide (DMSO) on the day of the assay. For water soluble compounds and negative controls, 1% v/v DMSO was added to the assay. In vitro fluorescence assay results were read in white ½-volume 96-well microplates (Corning Costar 3693) with a CytoFluor™ II fluorescence plate reader (PerSeptive Biosystems, Ex. 360 nm, Em. 460 nm, gain=85). […] Unless otherwise indicated all initial rate measurements were means of three or more replicates, obtained with single incubation times, at which point 5% or less of the substrate initially present had been deacetylated. Calculation of net fluorescence increases included subtraction of a blank value, which in the case of Sir2 was obtained by omitting the enzyme from the reaction and in the case of SIRT1 by adding an inhibitor (200 μM suramin or 1 mM nicotinamide) to the reaction prior to the acetylated substrate. A number of the polyphenols partially quenched the fluorescence produced in the assay and correction factors were obtained by determining the fluorescence increase due to a 3 μM spike of an FdL deacetylated standard (BIOMOL, catalog number KI-142). All error bars represent the standard error of the mean.
All SIRT1 rate measurements used in the calculation of “Ratio to Control Rate” were obtained with 25 μM NAD^+ and 25 μM p53-382 acetylated peptide substrate were performed as described above and in K. T. Howitz et al. Nature (2003) 425: 191. All ratio data were calculated from experiments in which the total deacetylation in the control reaction was 0.25-1.25 μM peptide or 1-5% of the initial concentration of acetylated peptide.

[8] = system: S. cerevisiae; experiment: Yeast replicative lifespan by micro-manipulation; format: cell-based; settings: 10 μM
Method: Average lifespan for wild type, 22.9 generations, quercetin, 23.4; piceatannol.
Lifespan measurements were performed using PSY316AT MATα as previously described^35. All compounds for lifespan analyses were dissolved in 95% ethanol and plates were dried and used within 24 hours. Prior to lifespan analysis, cells were pre-incubated on their respective media for at least 15 hours. Following transfer to a new plate, cells were equilibrated on the medium for a minimum of 4 hours prior to micro-manipulating them. At least 30 cells were examined per experiment and each experiment was performed at least twice. Statistical significance of lifespan differences was determined using the Wilcoxon rank sum test. Differences are stated to be significant when the confidence is higher than 95%.

[9] = molecular target: p53-382 acetylated peptide substrate ('Fluor de Lys-SIRT1', BIOMOL) (human) (UniProt P04637)
[10] = system: TNF-alpha treated adipocytes; experiment: Radioactive glucose uptake in TNF-alpha treated insulin resistant adipocytes; format: cell-based; settings: resveratrol 5 μM or 15 μM; roziglitazone 4 μM

NC(=O)c1ncn([C@@H]2O[C@H](CO)[C@@H](O)[C@H]2O)c1N [AICAR, 5-aminoimidazole-4-carboxamide-1-beta-D-ribofuranoside]
14C-CO2 production (nmol/hr/10^6 cells) (Fold Effect) [1]: 2.3 fold | 14C-CO2 production (nmol/hr/10^6 cells) (Fold Effect) [2]: 5 fold | Phosphorylation of AMPK and ACC [3]: stimulates phosphorylation of AMPK and ACC

COc1ccc(/C=C/c2cc(O)cc(O)c2)cc1 [BML-233, 3,5-Dihydroxy-4′-methoxy-trans-stilbene]
Activation of SIRT1 [4]: 2.1 fold

CN(C)C(=N)N=C(N)N [Metformin]
14C-CO2 production (nmol/hr/10^6 cells) (Fold Effect) [1]: 2 fold | 14C-CO2 production (nmol/hr/10^6 cells) (Fold Effect) [2]: 3.5 fold

Oc1cc(O)cc(/C=C/c2ccccc2)c1 [Pinosylvin, 3,5-Dihydroxy-trans-stilbene]
Activation of SIRT1 [4]: 3.28 fold

C(=C/c1ccccc1)/c1ccccc1 [cis-stilbene, cis-Stilbene]
Fat staining ([5]; 100 μM, 48 hours, control 2.5% v/v DMSO): No significant effect

O=c1c(O)c(-c2ccc(O)c(O)c2)oc2cc(O)ccc12 [fisetin, 3,7,3′,4′-Tetrahyddroxyflavone]
Fat mobilization ([5]; 100 μM, 48 hours): stimulate fat mobilization | Concentration as low as which fat accumulation is reduced ([5]; 48 hours): 10 µM | Longevity under restricted diet ([6]; restricted diet): neither resveratrol nor fisetin further increased longevity | Lifespan extension ([6]; wild type strains, males and females, independent tests, maximum): up to 23%

NC(=O)c1cccnc1 [nicotinamide]
Vmax decrease ([7]; 50 μM nicotinamide, absence of resveratrol, two determinations (varying NAD+ or p53-382 peptide)): 30% and 36% | Fat accumulation ([5]; 0, 1 or 10 mM nicotinamide, overnight): concentration dependent increase in fat accumulation

Oc1cc(O)cc(/C=C/c2ccc(O)c(O)c2)c1 [piceatannol, 3,5,3′,4′-Tetrahydroxy-trans-stilbene]
Stimulation of SIRT1 activity ([7]; initial screen (Table 1, 100 μM)): eight | Fat mobilization ([5]; 100 μM, 48 hours): stimulate fat mobilization | Effect on lifespan (in words) [8]: no significant effect

O=c1c(O)c(-c2ccc(O)c(O)c2)oc2cc(O)cc(O)c12 [quercetin, 3,5,7,3′,4′-Pentahydroxyflavone]
Fat mobilization ([5]; 100 μM, 48 hours): stimulate fat mobilization | Concentration as low as which fat accumulation is reduced ([5]; 48 hours): 10 µM | Effect on lifespan (in words) [8]: no significant effect

His6-tagged recombinant SIRT1 (from UniProt Q96EB6) (enzyme)
Km for the p53-382 acetylated peptide (SIRT1 initial deacetylation rate, fluorescence) [9]: 64 µM

roziglitazone
Insulin sensitivity (radioactive glucose uptake) [10]: increases the uptake of radioactive glucose
